# Measured values taken from ChEMBL document CHEMBL6071157, “Improved N-phenylpyrrolamide inhibitors of DNA gyrase as antibacterial agents for high-priority bacterial strains” (Eur J Med Chem, 2024).
# Target: DNA gyrase (Escherichia coli, UniProt P0AES4+P0AES6)
# Assay: Inhibition of Escherichia coli DNA gyrase by supercoiling plate assay
# Type: protein-complex assay
# Settings: not given
row,Structure (SMILES),IC50 [nM]
1,Cc1[nH]c(C(=O)Nc2ccc(-c3nnn[nH]3)cc2N2CCOCC2)c(Cl)c1Cl,44.5
2,Cc1[nH]c(C(=O)Nc2ccc(-c3nnn[nH]3)cc2N2CCCC(CN)C2)c(Cl)c1Cl.Cl (stereo unspecified),2.16
3,Cc1[nH]c(C(=O)Nc2ccc(-n3nn[nH]c3=O)cc2N2CC[C@H](NC(=O)OC(C)(C)C)C2)c(Cl)c1Cl,212
4,Cc1[nH]c(C(=O)Nc2ccc(-c3noc(=O)[nH]3)cc2NC2CCNCC2)c(Cl)c1Cl.Cl,9.66
5,Cc1[nH]c(C(=O)Nc2ccc(-c3noc(=O)[nH]3)cc2N2CCNCC2)c(Cl)c1Cl.Cl,6.07

# Target: DNA gyrase (Staphylococcus aureus, UniProt P0A0K8+P20831)
# Assay: Inhibition of Staphylococcus aureus DNA gyrase by supercoiling plate assay
# Type: protein-complex assay
# Settings: not given
# Sequence of DNA gyrase (Staphylococcus aureus, UniProt P0A0K8+P20831) (P0A0K8 whole entry): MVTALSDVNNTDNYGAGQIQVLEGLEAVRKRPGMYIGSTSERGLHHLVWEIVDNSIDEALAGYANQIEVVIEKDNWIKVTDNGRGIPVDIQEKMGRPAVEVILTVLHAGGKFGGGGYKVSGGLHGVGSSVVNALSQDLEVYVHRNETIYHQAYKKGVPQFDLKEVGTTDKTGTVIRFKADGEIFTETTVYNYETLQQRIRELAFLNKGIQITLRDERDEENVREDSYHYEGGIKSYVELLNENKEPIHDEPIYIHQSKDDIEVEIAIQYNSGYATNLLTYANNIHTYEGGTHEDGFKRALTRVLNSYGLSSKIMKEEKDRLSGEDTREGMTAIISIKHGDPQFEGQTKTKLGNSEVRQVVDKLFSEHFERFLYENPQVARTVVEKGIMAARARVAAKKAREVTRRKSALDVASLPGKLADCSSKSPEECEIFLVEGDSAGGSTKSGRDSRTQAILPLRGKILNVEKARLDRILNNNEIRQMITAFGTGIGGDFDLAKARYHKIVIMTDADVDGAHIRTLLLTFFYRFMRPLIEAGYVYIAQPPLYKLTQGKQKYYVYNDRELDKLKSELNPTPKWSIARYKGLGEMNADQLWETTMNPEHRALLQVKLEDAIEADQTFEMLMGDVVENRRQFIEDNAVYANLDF
# Sequence of DNA gyrase (Staphylococcus aureus, UniProt P0A0K8+P20831) (P20831 whole entry): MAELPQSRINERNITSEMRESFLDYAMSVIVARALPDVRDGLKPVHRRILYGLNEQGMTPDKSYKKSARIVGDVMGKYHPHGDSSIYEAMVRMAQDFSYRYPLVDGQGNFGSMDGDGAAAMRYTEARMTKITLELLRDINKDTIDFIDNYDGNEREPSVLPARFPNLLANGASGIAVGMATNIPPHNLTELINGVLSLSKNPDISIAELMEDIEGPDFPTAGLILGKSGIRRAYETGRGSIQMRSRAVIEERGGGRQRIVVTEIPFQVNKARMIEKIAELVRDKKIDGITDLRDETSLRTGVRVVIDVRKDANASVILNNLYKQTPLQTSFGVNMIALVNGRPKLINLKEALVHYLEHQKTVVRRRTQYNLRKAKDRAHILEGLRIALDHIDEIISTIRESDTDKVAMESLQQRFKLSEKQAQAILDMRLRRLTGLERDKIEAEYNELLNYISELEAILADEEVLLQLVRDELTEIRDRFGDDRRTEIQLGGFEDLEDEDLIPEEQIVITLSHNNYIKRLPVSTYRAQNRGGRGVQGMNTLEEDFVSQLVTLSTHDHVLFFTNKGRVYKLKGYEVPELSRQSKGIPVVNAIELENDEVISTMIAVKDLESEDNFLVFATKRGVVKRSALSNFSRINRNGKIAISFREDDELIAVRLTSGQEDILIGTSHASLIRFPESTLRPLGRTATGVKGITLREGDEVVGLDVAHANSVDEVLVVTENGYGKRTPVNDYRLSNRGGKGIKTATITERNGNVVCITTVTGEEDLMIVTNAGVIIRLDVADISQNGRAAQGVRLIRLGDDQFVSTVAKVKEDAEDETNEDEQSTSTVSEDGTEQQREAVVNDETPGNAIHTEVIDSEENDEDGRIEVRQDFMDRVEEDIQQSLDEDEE
row,Structure (SMILES),IC50 [nM]
1,Cc1[nH]c(C(=O)Nc2ccc(-c3nnn[nH]3)cc2N2CCCC(CN)C2)c(Cl)c1Cl.Cl (stereo unspecified),35
2,Cc1[nH]c(C(=O)Nc2ccc(-c3noc(=O)[nH]3)cc2NC2CCNCC2)c(Cl)c1Cl.Cl,249

# Test system: not listed separately
# Assay: Inhibition of Escherichia coli DNA topoisomerase-IV relaxation plate assay
# Settings: not given
row,Structure (SMILES),IC50 [nM]
1,Cc1[nH]c(C(=O)Nc2ccc(-c3nnn[nH]3)cc2N2CCCC(CN)C2)c(Cl)c1Cl.Cl (stereo unspecified),60.3
2,Cc1[nH]c(C(=O)Nc2ccc(-c3noc(=O)[nH]3)cc2NC2CCNCC2)c(Cl)c1Cl.Cl,1180
3,Cc1[nH]c(C(=O)Nc2ccc(-c3noc(=O)[nH]3)cc2N2CCNCC2)c(Cl)c1Cl.Cl,3150

# Target: T1, DNA topoisomerase 2-alpha (Homo sapiens, UniProt P11388)
# Assay: (§1) Inhibition of human DNA topoisomerase 2-alpha using linear pBR322 as substrate assessed as conversion of NADH to NAD+ preincubated for 10 to 15 mins in presence of pyruvate kinase/lactate dehydrogenase mix followed by ATP addition and measured after 30 mins by ATPase assay
# Settings: not given
# T1 sequence (P11388 whole entry): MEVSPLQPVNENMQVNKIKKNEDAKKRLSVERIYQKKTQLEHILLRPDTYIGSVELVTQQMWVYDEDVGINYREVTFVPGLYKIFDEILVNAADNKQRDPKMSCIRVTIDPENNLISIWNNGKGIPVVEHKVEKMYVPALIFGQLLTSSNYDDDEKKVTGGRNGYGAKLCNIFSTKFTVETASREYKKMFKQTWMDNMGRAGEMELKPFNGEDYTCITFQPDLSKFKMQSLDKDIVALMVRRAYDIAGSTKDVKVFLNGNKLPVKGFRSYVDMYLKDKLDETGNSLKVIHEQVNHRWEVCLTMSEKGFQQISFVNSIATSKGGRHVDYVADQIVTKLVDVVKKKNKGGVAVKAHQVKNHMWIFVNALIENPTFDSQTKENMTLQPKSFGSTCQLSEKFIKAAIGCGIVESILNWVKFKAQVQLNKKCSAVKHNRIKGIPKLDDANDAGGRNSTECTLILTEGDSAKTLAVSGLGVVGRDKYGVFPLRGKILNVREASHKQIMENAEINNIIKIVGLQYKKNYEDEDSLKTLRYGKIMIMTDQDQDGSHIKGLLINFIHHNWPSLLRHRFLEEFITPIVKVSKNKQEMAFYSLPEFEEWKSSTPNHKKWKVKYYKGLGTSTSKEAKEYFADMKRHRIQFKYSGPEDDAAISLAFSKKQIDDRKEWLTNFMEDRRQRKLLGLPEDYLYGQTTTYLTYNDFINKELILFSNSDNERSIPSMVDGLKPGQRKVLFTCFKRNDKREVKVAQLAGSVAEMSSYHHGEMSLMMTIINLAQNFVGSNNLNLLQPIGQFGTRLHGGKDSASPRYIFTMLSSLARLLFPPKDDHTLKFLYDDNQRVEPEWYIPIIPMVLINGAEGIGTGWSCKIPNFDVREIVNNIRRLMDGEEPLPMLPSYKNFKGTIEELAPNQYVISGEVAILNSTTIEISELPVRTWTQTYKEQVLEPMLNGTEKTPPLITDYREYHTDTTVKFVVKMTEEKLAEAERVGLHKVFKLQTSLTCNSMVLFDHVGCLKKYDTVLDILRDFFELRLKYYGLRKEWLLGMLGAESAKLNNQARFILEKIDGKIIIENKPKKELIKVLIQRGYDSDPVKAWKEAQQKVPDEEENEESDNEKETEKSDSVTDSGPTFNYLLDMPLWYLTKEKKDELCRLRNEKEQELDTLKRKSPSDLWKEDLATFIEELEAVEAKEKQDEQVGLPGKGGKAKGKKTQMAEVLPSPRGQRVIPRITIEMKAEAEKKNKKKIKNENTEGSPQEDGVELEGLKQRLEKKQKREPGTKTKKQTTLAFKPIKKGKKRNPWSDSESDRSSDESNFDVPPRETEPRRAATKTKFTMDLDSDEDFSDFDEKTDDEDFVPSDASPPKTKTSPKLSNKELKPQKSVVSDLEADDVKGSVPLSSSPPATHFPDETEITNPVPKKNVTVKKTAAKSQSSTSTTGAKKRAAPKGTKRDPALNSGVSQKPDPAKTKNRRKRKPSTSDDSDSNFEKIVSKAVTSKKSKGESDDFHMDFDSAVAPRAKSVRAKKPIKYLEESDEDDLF
row,Structure (SMILES),IC50 [nM]
1,Cc1[nH]c(C(=O)Nc2ccc(-c3nnn[nH]3)cc2N2CCOCC2)c(Cl)c1Cl,39200

# Test system: Escherichia coli
# Assay: Inhibition of Escherichia coli DNA topoisomerase-IV assessed as residual activity at 1 uM by relaxation plate assay relative to control
# Settings: not given
row,Structure (SMILES),Activity [%]
1,Cc1[nH]c(C(=O)Nc2ccc(-c3nnn[nH]3)cc2N2CCOCC2)c(Cl)c1Cl,77

# Test system: Escherichia coli
# Assay: Inhibition of Escherichia coli DNA topoisomerase-IV assessed as residual activity at 10 uM by relaxation plate assay relative to control
# Settings: not given
row,Structure (SMILES),Activity [%]
1,Cc1[nH]c(C(=O)Nc2ccc(-n3nn[nH]c3=O)cc2N2CC[C@H](NC(=O)OC(C)(C)C)C2)c(Cl)c1Cl,72

# Target: T1, DNA topoisomerase 2-alpha
# Assay: as §1, with “NAD+ by measuring residual activity at 100 uM” for “NAD+”, “assay relative to control” for “assay”
# Settings: time 40-55 min
row,Structure (SMILES),Activity [%]
1,Cc1[nH]c(C(=O)Nc2ccc(-c3nnn[nH]3)cc2N2CCCC(CN)C2)c(Cl)c1Cl.Cl (stereo unspecified),91
2,Cc1[nH]c(C(=O)Nc2ccc(-n3nn[nH]c3=O)cc2N2CC[C@H](NC(=O)OC(C)(C)C)C2)c(Cl)c1Cl,95
3,Cc1[nH]c(C(=O)Nc2ccc(-c3noc(=O)[nH]3)cc2NC2CCNCC2)c(Cl)c1Cl.Cl,101
4,Cc1[nH]c(C(=O)Nc2ccc(-c3noc(=O)[nH]3)cc2N2CCNCC2)c(Cl)c1Cl.Cl,101

# Test system: Staphylococcus aureus
# Assay: Antibacterial activity against Staphylococcus aureus ATCC 29213 assessed as inhibition of bacterial growth by broth microdilution method
# Type: functional
# Settings: not given
row,Structure (SMILES),MIC [µg/mL]
1,Cc1[nH]c(C(=O)Nc2ccc(-c3nnn[nH]3)cc2N2CCOCC2)c(Cl)c1Cl,> 64
2,Cc1[nH]c(C(=O)Nc2ccc(-c3nnn[nH]3)cc2N2CCCC(CN)C2)c(Cl)c1Cl.Cl (stereo unspecified),16
3,Cc1[nH]c(C(=O)Nc2ccc(-c3noc(=O)[nH]3)cc2NC2CCNCC2)c(Cl)c1Cl.Cl,> 64
4,Cc1[nH]c(C(=O)Nc2ccc(-c3noc(=O)[nH]3)cc2N2CCNCC2)c(Cl)c1Cl.Cl,> 64

# Test system: Staphylococcus aureus
# Assay: Antibacterial against methicillin resistant Staphylococcus aureus ATCC 43300 assessed as inhibition of bacterial growth by broth microdilution method
# Type: functional
# Settings: time 24 hrs
row,Structure (SMILES),MIC [µg/mL]
1,Cc1[nH]c(C(=O)Nc2ccc(-c3nnn[nH]3)cc2N2CCOCC2)c(Cl)c1Cl,> 64
2,Cc1[nH]c(C(=O)Nc2ccc(-c3nnn[nH]3)cc2N2CCCC(CN)C2)c(Cl)c1Cl.Cl (stereo unspecified),> 64
3,Cc1[nH]c(C(=O)Nc2ccc(-c3noc(=O)[nH]3)cc2NC2CCNCC2)c(Cl)c1Cl.Cl,> 64
4,Cc1[nH]c(C(=O)Nc2ccc(-c3noc(=O)[nH]3)cc2N2CCNCC2)c(Cl)c1Cl.Cl,> 64

# Test system: Staphylococcus aureus
# Assay: Antibacterial against vancomycin-intermediate Staphylococcus aureus ATCC 700699 assessed as inhibition of bacterial growth by broth dilution method
# Type: functional
# Settings: not given
row,Structure (SMILES),MIC [µg/mL]
1,Cc1[nH]c(C(=O)Nc2ccc(-c3nnn[nH]3)cc2N2CCCC(CN)C2)c(Cl)c1Cl.Cl (stereo unspecified),> 64
2,Cc1[nH]c(C(=O)Nc2ccc(-c3noc(=O)[nH]3)cc2NC2CCNCC2)c(Cl)c1Cl.Cl,> 64
3,Cc1[nH]c(C(=O)Nc2ccc(-c3noc(=O)[nH]3)cc2N2CCNCC2)c(Cl)c1Cl.Cl,> 64

# Test system: Enterococcus faecalis
# Assay: Antibacterial activity against Enterococcus faecalis ATCC 29212 assessed as inhibition of bacterial growth by broth microdilution method
# Type: functional
# Settings: not given
row,Structure (SMILES),MIC [µg/mL]
1,Cc1[nH]c(C(=O)Nc2ccc(-c3nnn[nH]3)cc2N2CCCC(CN)C2)c(Cl)c1Cl.Cl (stereo unspecified),8
2,Cc1[nH]c(C(=O)Nc2ccc(-c3noc(=O)[nH]3)cc2NC2CCNCC2)c(Cl)c1Cl.Cl,> 64
3,Cc1[nH]c(C(=O)Nc2ccc(-c3noc(=O)[nH]3)cc2N2CCNCC2)c(Cl)c1Cl.Cl,> 64

# Test system: Enterococcus faecium
# Assay: Antibacterial activity against vancomycin-resistant Enterococcus faecium ATCC 700221 assessed as inhibition of bacterial growth by broth microdilution method
# Type: functional
# Settings: not given
row,Structure (SMILES),MIC [µg/mL]
1,Cc1[nH]c(C(=O)Nc2ccc(-c3nnn[nH]3)cc2N2CCOCC2)c(Cl)c1Cl,> 64
2,Cc1[nH]c(C(=O)Nc2ccc(-c3nnn[nH]3)cc2N2CCCC(CN)C2)c(Cl)c1Cl.Cl (stereo unspecified),16
3,Cc1[nH]c(C(=O)Nc2ccc(-c3noc(=O)[nH]3)cc2NC2CCNCC2)c(Cl)c1Cl.Cl,> 64
4,Cc1[nH]c(C(=O)Nc2ccc(-c3noc(=O)[nH]3)cc2N2CCNCC2)c(Cl)c1Cl.Cl,> 64

# Test system: Escherichia coli
# Assay: Antibacterial activity against Escherichia coli ATCC 25922 assessed as inhibition of bacterial growth by broth microdilution method
# Type: functional
# Settings: not given
row,Structure (SMILES),MIC [µg/mL]
1,Cc1[nH]c(C(=O)Nc2ccc(-c3nnn[nH]3)cc2N2CCOCC2)c(Cl)c1Cl,> 64
2,Cc1[nH]c(C(=O)Nc2ccc(-c3nnn[nH]3)cc2N2CCCC(CN)C2)c(Cl)c1Cl.Cl (stereo unspecified),> 64
3,Cc1[nH]c(C(=O)Nc2ccc(-c3noc(=O)[nH]3)cc2NC2CCNCC2)c(Cl)c1Cl.Cl,> 64
4,Cc1[nH]c(C(=O)Nc2ccc(-c3noc(=O)[nH]3)cc2N2CCNCC2)c(Cl)c1Cl.Cl,> 64

# Test system: Enterobacter cloacae
# Assay: Antibacterial activity against Enterobacter cloacae subsp. cloacae ATCC 13047 assessed as inhibition of bacterial growth by broth microdilution method
# Type: functional
# Settings: not given
row,Structure (SMILES),MIC [µg/mL]
1,Cc1[nH]c(C(=O)Nc2ccc(-c3nnn[nH]3)cc2N2CCOCC2)c(Cl)c1Cl,> 64
2,Cc1[nH]c(C(=O)Nc2ccc(-c3nnn[nH]3)cc2N2CCCC(CN)C2)c(Cl)c1Cl.Cl (stereo unspecified),> 64
3,Cc1[nH]c(C(=O)Nc2ccc(-c3noc(=O)[nH]3)cc2NC2CCNCC2)c(Cl)c1Cl.Cl,> 64
4,Cc1[nH]c(C(=O)Nc2ccc(-c3noc(=O)[nH]3)cc2N2CCNCC2)c(Cl)c1Cl.Cl,> 64

# Test system: Pseudomonas aeruginosa
# Assay: Antibacterial activity against Pseudomonas aeruginosa ATCC 27853 assessed as inhibition of bacterial growth by broth microdilution metho
# Type: functional
# Settings: not given
row,Structure (SMILES),MIC [µg/mL]
1,Cc1[nH]c(C(=O)Nc2ccc(-c3nnn[nH]3)cc2N2CCOCC2)c(Cl)c1Cl,> 64
2,Cc1[nH]c(C(=O)Nc2ccc(-c3nnn[nH]3)cc2N2CCCC(CN)C2)c(Cl)c1Cl.Cl (stereo unspecified),> 64
3,Cc1[nH]c(C(=O)Nc2ccc(-c3noc(=O)[nH]3)cc2NC2CCNCC2)c(Cl)c1Cl.Cl,> 64
4,Cc1[nH]c(C(=O)Nc2ccc(-c3noc(=O)[nH]3)cc2N2CCNCC2)c(Cl)c1Cl.Cl,> 64

# Test system: Klebsiella pneumoniae
# Assay: Antibacterial activity against Klebsiella pneumoniae ATCC 10031 assessed as inhibition of bacterial growth by broth microdilution method
# Type: functional
# Settings: not given
row,Structure (SMILES),MIC [µg/mL]
1,Cc1[nH]c(C(=O)Nc2ccc(-c3nnn[nH]3)cc2N2CCOCC2)c(Cl)c1Cl,> 64
2,Cc1[nH]c(C(=O)Nc2ccc(-c3nnn[nH]3)cc2N2CCCC(CN)C2)c(Cl)c1Cl.Cl (stereo unspecified),64
3,Cc1[nH]c(C(=O)Nc2ccc(-c3noc(=O)[nH]3)cc2NC2CCNCC2)c(Cl)c1Cl.Cl,> 64
4,Cc1[nH]c(C(=O)Nc2ccc(-c3noc(=O)[nH]3)cc2N2CCNCC2)c(Cl)c1Cl.Cl,> 64

# Test system: Acinetobacter baumannii
# Assay: Antibacterial activity against Acinetobacter baumannii ATCC 17978 assessed as inhibition of bacterial growth by broth microdilution method
# Type: functional
# Settings: not given
row,Structure (SMILES),MIC [µg/mL]
1,Cc1[nH]c(C(=O)Nc2ccc(-c3nnn[nH]3)cc2N2CCOCC2)c(Cl)c1Cl,> 64
2,Cc1[nH]c(C(=O)Nc2ccc(-c3nnn[nH]3)cc2N2CCCC(CN)C2)c(Cl)c1Cl.Cl (stereo unspecified),> 64
3,Cc1[nH]c(C(=O)Nc2ccc(-c3noc(=O)[nH]3)cc2NC2CCNCC2)c(Cl)c1Cl.Cl,> 64
4,Cc1[nH]c(C(=O)Nc2ccc(-c3noc(=O)[nH]3)cc2N2CCNCC2)c(Cl)c1Cl.Cl,> 64

# Test system: MCF7
# Assay: Cytotoxicity against human MCF7 cells assessed as cell viability at 50 uM incubated for 72 hrs by CellTiter 96 aqueous one solution reagent based MTS assay relative to control
# Type: functional
# Settings: read-out: Activity
row,Structure (SMILES),viability at 50 µM [%]
1,Cc1[nH]c(C(=O)Nc2ccc(-c3nnn[nH]3)cc2N2CCCC(CN)C2)c(Cl)c1Cl.Cl (stereo unspecified),117
